#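 Briefly, cells in 96-well plates were exposed to five compound concentrations for 48 h, and endpoints were estimated by linear interpolation. The concentration for full growth arrest is given as TGI.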
# Key:
# Experiment in all cases: NCI-60 cell line screen, 48 h
# [1] = tested on: IGROV1 ovarian
# [2] = tested on: CAKI-1 renal
# [3] = tested on: 786-0 renal
# [4] = tested on: HCC-2998 colon
# [5] = tested on: NCI-H460 lung
# [6] = tested on: PC-3 prostate
# [7] = tested on: NCI/ADR-RES ovarian
# [8] = tested on: DU-145 prostate
# [9] = tested on: MDA-MB-231 breast
# [10] = tested on: A549 NSCLC
# [11] = tested on: MDA-MB-435
# [12] = tested on: RXF 393 renal
# [13] = tested on: HOP-62 NSCLC
# [14] = tested on: MCF7 breast
# [15] = tested on: BT-549 breast
# [16] = tested on: KM12 colon
# [17] = tested on: A498 renal
# [18] = tested on: ACHN renal
# [19] = tested on: SF-539 CNS
# [20] = tested on: SK-MEL-28 melanoma
# [21] = tested on: M14 melanoma
# [22] = tested on: SNB-19 CNS
# [23] = tested on: K-562 leukemia
# [24] = tested on: HL-60(TB) leukemia
# [25] = tested on: UO-31 renal
# [26] = tested on: UACC-62 melanoma
# [27] = tested on: NCI-H522 lung
# [28] = tested on: SR leukemia
# [29] = tested on: SK-MEL-2 melanoma
# [30] = tested on: SF-295 CNS
# [31] = tested on: OVCAR-3 ovarian
# [32] = tested on: U251 CNS
# [33] = tested on: NCI-H226 lung
# [34] = tested on: EKVX NSCLC
# [35] = tested on: SW-620 colon
# [36] = tested on: HCT-116 colon
# [37] = tested on: MOLT-4 leukemia
# [38] = tested on: TK-10 renal
# [39] = tested on: RPMI-8226 leukemia
# [40] = tested on: NCI-H23 lung
# [41] = tested on: SK-MEL-5 melanoma
# [42] = tested on: COLO 205 colon
# [43] = tested on: HCT-15 colon
# [44] = tested on: MALME-3M melanoma
# [45] = tested on: HS 578T breast
# [46] = tested on: UACC-257 melanoma
# [47] = tested on: LOX IMVI melanoma
# [48] = tested on: MDA-N
# [49] = tested on: OVCAR-5 ovarian
# [50] = tested on: OVCAR-8 ovarian
# [51] = tested on: HOP-92 NSCLC
# [52] = tested on: SF-268 CNS
# [53] = tested on: OVCAR-4 ovarian
# [54] = tested on: HT29 colon
# [55] = tested on: SN12C renal
# [56] = tested on: CCRF-CEM leukemia
# [57] = tested on: SK-OV-3 ovarian
# [58] = tested on: SNB-75 CNS
# [59] = tested on: T-47D breast
smiles,measurement,setting,value
COc1ccc(SC(C)(SC)c2ccccn2)c(OC)n1 (centres undefined),TGI,[1],> 100 µM
same,TGI,[2],> 100 µM
same,TGI,[3],> 100 µM
same,TGI,[4],> 100 µM
same,TGI,[5],> 100 µM
same,TGI,[6],> 100 µM
same,TGI,[7],> 100 µM
same,TGI,[8],> 100 µM
same,TGI,[9],> 100 µM
same,TGI,[10],> 100 µM
same,TGI,[11],> 100 µM
same,TGI,[12],> 100 µM
same,TGI,[13],> 100 µM
same,TGI,[14],> 100 µM
same,TGI,[15],> 100 µM
same,TGI,[16],> 100 µM
same,TGI,[17],> 100 µM
same,TGI,[18],> 100 µM
same,TGI,[19],> 100 µM
same,TGI,[20],> 100 µM
same,TGI,[21],> 100 µM
same,TGI,[22],> 100 µM
same,TGI,[23],> 100 µM
same,TGI,[24],28.3 µM
same,TGI,[25],> 100 µM
same,TGI,[26],> 100 µM
same,TGI,[27],> 100 µM
same,TGI,[28],> 100 µM
same,TGI,[29],> 100 µM
same,TGI,[30],> 100 µM
same,TGI,[31],> 100 µM
same,TGI,[32],> 100 µM
same,TGI,[33],> 100 µM
same,TGI,[34],> 100 µM
same,TGI,[35],> 100 µM
same,TGI,[36],> 100 µM
same,TGI,[37],> 100 µM
same,TGI,[38],> 100 µM
same,TGI,[39],73.4 µM
same,TGI,[40],> 100 µM
same,TGI,[41],> 100 µM
same,TGI,[42],> 100 µM
same,TGI,[43],> 100 µM
same,TGI,[44],> 100 µM
same,TGI,[45],> 100 µM
same,TGI,[46],> 100 µM
same,TGI,[47],> 100 µM
same,TGI,[48],> 100 µM
same,TGI,[49],> 100 µM
same,TGI,[50],> 100 µM
same,TGI,[51],> 100 µM
same,TGI,[52],> 100 µM
same,TGI,[53],> 100 µM
same,TGI,[54],> 100 µM
same,TGI,[55],> 100 µM
CC1NC(/C(=C/c2ccccc2O)NC(=O)c2ccccc2)OC1=O (centres undefined),TGI,[1],> 50 µM
same,TGI,[2],> 50 µM
same,TGI,[3],> 50 µM
same,TGI,[4],> 50 µM
same,TGI,[56],> 50 µM
same,TGI,[57],> 50 µM
same,TGI,[6],> 50 µM
same,TGI,[7],> 50 µM
same,TGI,[9],> 50 µM
same,TGI,[10],> 50 µM
same,TGI,[58],> 50 µM
same,TGI,[11],> 50 µM
same,TGI,[13],> 50 µM
same,TGI,[14],> 50 µM
same,TGI,[15],> 50 µM
same,TGI,[16],> 50 µM
same,TGI,[17],> 50 µM
same,TGI,[18],> 50 µM
same,TGI,[19],48 µM
same,TGI,[20],> 50 µM
same,TGI,[21],> 50 µM
same,TGI,[22],> 50 µM
same,TGI,[23],> 50 µM
same,TGI,[24],> 50 µM
same,TGI,[25],> 50 µM
same,TGI,[26],> 50 µM
same,TGI,[27],> 50 µM
same,TGI,[28],> 50 µM
same,TGI,[29],> 50 µM
same,TGI,[30],> 50 µM
same,TGI,[31],> 50 µM
same,TGI,[32],> 50 µM
same,TGI,[33],> 50 µM
same,TGI,[34],> 50 µM
same,TGI,[35],> 50 µM
same,TGI,[36],> 50 µM
same,TGI,[37],> 50 µM
same,TGI,[38],> 50 µM
same,TGI,[39],> 50 µM
same,TGI,[40],> 50 µM
same,TGI,[41],> 50 µM
same,TGI,[42],> 50 µM
same,TGI,[43],> 50 µM
same,TGI,[44],> 50 µM
same,TGI,[46],> 50 µM
same,TGI,[47],> 50 µM
same,TGI,[59],> 50 µM
same,TGI,[48],> 50 µM
same,TGI,[49],> 50 µM
same,TGI,[50],> 50 µM
same,TGI,[51],46.6 µM
same,TGI,[53],> 50 µM
same,TGI,[54],> 50 µM
same,TGI,[55],> 50 µM

# From PubChem BioAssay (NCI)
